{
  "source": "patent US20100003711A1",
  "about": "“Methods to identify therapeutic agents” (THE SCRIPPS RESEARCH INSTITUTE, priority 2005, published 2010)",
  "key": {"[1]": {"test_system": "WI-L2 human B-lymphocyte line", "assay": "LDH release cytotoxicity assay, WI-L2", "type": "cell-based", "conditions": "B-cell (WI-L2) cell line, concentration range of FIG. 6A (0-100 μM)", "description": "(§1) Cytotoxicity assays. WI-L2 human B-lymphocyte line, HAAE-1 human abdominal aortic endothelial line, MH-S murine alveolar macrophage line, and J774A.1 murine tissue macrophage line were obtained from the ATCC. Human aortic endothelial cells (HAEC) and human vascular smooth muscle cells (VSMS) were obtained from Cambrex Bio Science. Jurkat E6-1T-lymphocytes were kindly provided by Dr. J. Kaye (The Scripps Research Institute). Cells were cultured in ATCC-recommended media with 10% fetal calf serum. Cells were incubated in a controlled atmosphere at 37° C., with 5 or 7% CO2. For lactate dehydrogenase (LDH) release assays, adherent cells were harvested either by addition of 0.05% trypsin/EDTA or by scraping. The cells obtained were seeded onto 96-well microtiter plates (25,000 cells/well) and allowed to recover for 24-48 h. […] Cytotoxicity was then determined by measuring lactate dehydrogenase (LDH) release from cells in culture. […] 100% Cytotoxicity was defined as the maximum amount of LDH released by dead cells as shown by trypan blue exclusion, or the highest amount of LDH detected upon lysis of cells by 0.9% Triton X-100. The IC50 values were determined by comparison of the raw duplicate data for concentration versus cytotoxicity (%) to non-linear regression analysis (Hill plot) using Graphpad v3.0 software for Macintosh. […]"}, "VCAM-1 (CD106)": {"test_system": "VCAM-1 (CD106)", "assay": "Endothelial adhesion molecule expression by ELISA, VCAM-1", "type": "cell-based, human", "conditions": "HAAE-1, not complexed with LDL", "description": "(§2) Endothelial cell surface adhesion molecule expression was measured by ELISA, using anti-human CD54 (ICAM-1), CD106 (VCAM-1) and CD62E (E-Selectin) antibodies (Leinco Technologies, Inc., St. Louis, Mo.). The ELISA method was modified from previously described procedures.\n(§3) Cells were then incubated with antibodies to VCAM-1, E-selectin, or ICAM-1 diluted 1:400 in PBS containing 5% FCS at 37° C. for 30 min. Wells were washed two times with PBS, then incubated with horseradish peroxidase (HRP)-conjugated goat anti-mouse IgG (Southern Biotechnology Associates, Birmingham, Ala., USA) in PBS/5% FCS at 37° C. for 30 min. The wells were washed four times with PBS, then incubated with H2O2/3,3′,5,5′-tetramethyl-benzidine peroxidase substrate (Pierce Chemical, Rockford, Ill., USA) for 30 min in the dark. The reaction was stopped by adding 25 μl of 8 N H2SO4, and the plates read on a microplate reader, blanking on wells stained with only secondary antibody. Each assay was performed in triplicate and the data are reported as the mean±SEM as a percentage of the expression level of the vehicle. To study the effect of cholesterol ozonation product 5a concentration (5-50 μM) on E-selectin expression, the assay was performed in an identical fashion as described above, with each point being the mean±SEM of at least duplicate measurements."}, "ICAM-1 (CD54)": {"test_system": "ICAM-1 (CD54)", "assay": "Endothelial adhesion molecule expression by ELISA, ICAM-1", "type": "cell-based, human", "conditions": "HAAE-1, not complexed with LDL", "description": "as §2, §3"}, "THP-1 monocytes": {"test_system": "THP-1 monocytes", "assay": "Monocyte morphology changes (differentiation into macrophages)", "type": "cell-based, human", "conditions": "12.5 or 25 μM, up to 7 days", "description": "THP-1 monocytes in suspension were plated in 8-well chambered slides. […] Media containing appropriate treatment compounds was replaced after 4 days. After 4 days treatment, morphologic changes of the adherent cells were assessed by phase-contrast microscopy and photographed using an Olympus Microfire digital camera."}, "E-selectin (CD62E)": {"test_system": "E-selectin (CD62E)", "assay": "Endothelial adhesion molecule expression by ELISA, E-selectin", "type": "cell-based, human", "conditions": "HAAE-1, not complexed with LDL", "description": "as §2, §3"}, "[2]": {"test_system": "T-lymphocyte cell line (Jurkat E6.1)", "assay": "LDH release cytotoxicity assay, Jurkat", "type": "cell-based", "conditions": "concentration range of FIG. 6B (0-100 μM)", "description": "as §1"}},
  "data": [
    {"smiles": "CC(C)CCC[C@@H](C)[C@H]1CC[C@H]2[C@@H]3CC=C4C[C@@H](O)CC[C@]4(C)[C@H]3CC[C@]12C", "note": "[compound 3, cholesterol, reference compound]", "values": [
      {"measurement": "cytotoxicity", "setting": "[1]", "result": "No cytotoxicity"},
      {"measurement": "integrin expression (VCAM-1)", "setting": "VCAM-1 (CD106)", "result": "no effects"},
      {"measurement": "integrin expression (ICAM-1)", "setting": "ICAM-1 (CD54)", "result": "no effects"},
      {"measurement": "THP-1 monocyte differentiation into macrophages (adherence, morphology)", "setting": "THP-1 monocytes", "result": "neither became adherent nor developed the aforementioned morphological changes"},
      {"measurement": "selectin (E-selectin) expression", "setting": "E-selectin (CD62E)", "result": "no effects"},
      {"measurement": "cytotoxicity", "setting": "[2]", "result": "No cytotoxicity"}
    ]}
  ]
}
